# Read-outs that look alike come from different tables or passages of the source.
# Assays:
# CYPs = assay: Induction potency on CYPs in cryopreserved human hepatocytes, overall statement; assay type: in vitro ADME; conditions: cryopreserved human hepatocytes, 1, 3 and 10 μM; result in words
# Experimental: The ability to induce CYP1A2 or CYP3A4 was calculated in the same manner described above.
# CYP1A1 = conditions: human, hepatocytes
# Experimental: (§1) Cryopreserved human hepatocytes (XenoTeck) were rapidly thawed at 37° C., and viable cells were obtained using Hepatocytes Isolation Kit (Nosan Corporation). After cells prepared were diluted with ice cold William's Medium E (10% FBS, +PSG) to give a concentration of 5×10^5 viable cells/mL, the cells were seeded onto a 48-well collagen-coated plate (BD Biosciences) at a concentration of 1×10^5 cells/cm^2 and cultured at 37° C. in 5% CO2 for 24 hours. Then, the medium was replaced with Hepato-STIM (registered trade mark: BD Biosciences) (+EGF, PSG, −FBS), and the cells were further cultured at 37° C. in 5% CO2 for 24 hours. […] The culture medium containing test compound, β-NF or Rif was replaced every 24 hours. Test compound, β-NF and Rif were each dissolved in dimethyl sulfoxide (DMSO: Wako Pure Chemical Industries, Ltd.), and culture medium containing test compound (final concentrations; 1, 3 and 10 μM), β-NF (final concentration; 10 μM) or Rif (final concentration; 10 μM) was prepared by adding them to Hepato-STIM(+EGF, PSG, −FBS), respectively. Final concentration of DMSO was set to be 0.1%, and culture medium containing 0.1% DMSO was used for control. After completion of the treatment, the cells were washed with PBS once, and total RNA was purified using Total RNA Purification Kit (Applied Biosystems). The purified total RNA was subjected to reverse transcription reaction using TaqMan Reverse Transcription Reagents (Applied Biosystems) to synthesize cDNA, where oligo dT was used as a primer. The reaction was carried out using Gene Amp PCR system 9700 at 25° C. for 10 minutes, followed by at 48° C. for 60 minutes. Then, reverse transcriptase was deactivated at 95° C. for 10 minutes. The levels of mRNA for CYP1A1 and GAPDH were quantified using SYBR Green PCR Core Reagents Kit (Applied Biosystems), and those for CYP1A2 and that of CYP3A4 were measured using Taqman PCR Core Reagents Kit (Applied Biosystems) and ABI Prism 7900 Sequence Detection System (Applied Biosystems).
# (§2) * A cycle consisting of denaturation, annealing, and elongation reaction, was repeated 50 times.
# (§3) The ability of a test compound to induce CYP1A1 was calculated as follows: Ability of a test compound to induce CYP1A1 (%)={[(amount of mRNA of CYP1A1 in test compound treated cells)/(amount of mRNA of GAPDH in test compound treated cells)]/[(amount of mRNA of CYP1A1 in control cells)/(amount of mRNA of GAPDH in control cells)]−1}/{[(amount of mRNA of CYP1A1 in positive control treated cells)/(amount of mRNA of GAPDH in positive control treated cells)]/[(amount of mRNA of CYP1A1 in control cells)/(amount of mRNA of GAPDH in control cells)]−1}×100
# CYP1A2 = conditions: human, hepatocytes
# Experimental: as §1, §2, §3
# CYP3A4 = assay: Induction potency of drug metabolizing enzyme (CYP) using cryopreserved human hepatocytes, CYP3A4 mRNA; conditions: approximately 48 hours, mRNA normalised to GAPDH, positive control rifampicin 10 μM
# Experimental: as §1, §2, §3
Induction Ability compared to positive control (%) CYP1A1 (CYP1A1; 1 μM) [%],Induction Ability compared to positive control (%) CYP1A1 (CYP1A1; 3 μM) [%],Induction Ability compared to positive control (%) CYP1A1 (CYP1A1; 10 μM) [%],Induction Ability compared to positive control (%) CYP1A2 (CYP1A2; 1 μM) [%],Induction Ability compared to positive control (%) CYP1A2 (CYP1A2; 3 μM) [%],Induction Ability compared to positive control (%) CYP1A2 (CYP1A2; 10 μM) [%],Induction Ability compared to positive control (%) CYP3A4 (CYP3A4; test compound 1 μM) [%],Induction Ability compared to positive control (%) CYP3A4 (CYP3A4; test compound 3 μM) [%],Induction Ability compared to positive control (%) CYP3A4 (CYP3A4; test compound 10 μM) [%],SMILES,induction potency on CYPs (CYPs)
0.1,0.4,1.5,−1.1,0.6,6.1,−5.6,−6.1,0.1,"CCOC(=O)c1ccc(C(=O)Nc2cccc(-c3nc(NC)nc4cc(OC)c(OC)cc34)c2)cc1 [Example 4, ethyl N-[3-(6,7-dimethoxy-2-methylaminoquinazolin-4-yl)phenyl]terephthalamic acid]",
0.0,0.0,0.0,−2.0,−1.3,0.5,−6.9,−6.2,−2.0,"CNC(=O)c1ccc(C(=O)Nc2cccc(-c3nc(NC)nc4cc(OC)c(OC)cc34)c2)cc1 [Example 5, N-[3-(6,7-dimethoxy-2-methylaminoquinazolin-4-yl)phenyl]-N′-methylterephthalamide]",
0.2,1.8,5.7,0.5,1.5,3.1,−6.6,−9.8,−11.9,"CNc1nc(-c2cccc(NC(=O)c3ccc(C(=O)OC(C)C)cc3)c2)c2cc(OC)c(OC)cc2n1 [Example 7, isopropyl N-[3-(6,7-dimethoxy-2-methylaminoquinazolin-4-yl)phenyl]terephthalamic acid]",
0.2,0.3,0.7,1.2,3.0,1.8,0.7,−0.1,−1.5,"CCCOC(=O)c1cccc(C(=O)Nc2cccc(-c3nc(NC)nc4cc(OC)c(OC)cc34)c2)c1 [Example 14, propyl N-[3-(6,7-dimethoxy-2-methylaminoquinazolin-4-yl)phenyl]isophthalic acid]",
0.0,0.3,1.0,0.2,3.9,1.2,−0.7,−0.3,2.7,"CNC(=O)c1cccc(C(=O)Nc2cccc(-c3nc(NC)nc4cc(OC)c(OC)cc34)c2)c1 [Example 16, N-[3-(6,7-dimethoxy-2-methylaminoquinazolin-4-yl)phenyl]-N′-methylisophthalamide]",
0.1,0.1,0.8,−1.7,−1.6,−1.2,−2.0,−2.1,−2.2,"CNc1nc(-c2cccc(NC(=O)c3ccc(C(=O)OCCOC)cc3)c2)c2cc(OC)c(OC)cc2n1 [Example 20, N-[3-(6,7-dimethoxy-2-methylaminoquinazolin-4-yl)phenyl]terephthalamic acid 2-methoxyethyl ester]",
0.0,0.0,0.1,0.6,−0.3,0.4,−1.2,−1.6,−2.0,"CNc1nc(-c2cccc(NC(=O)c3cccc(C(=O)OCCOC)c3)c2)c2cc(OC)c(OC)cc2n1 [Example 21, N-[3-(6,7-dimethoxy-2-methylaminoquinazolin-4-yl)phenyl]isophthalamic acid 2-methoxyethyl ester]",

SMILES,Induction Ability compared to positive control (%) CYP1A1 (CYP1A1; 1 μM) [%],Induction Ability compared to positive control (%) CYP1A1 (CYP1A1; 3 μM) [%],Induction Ability compared to positive control (%) CYP1A1 (CYP1A1; 10 μM) [%],Induction Ability compared to positive control (%) CYP1A2 (CYP1A2; 1 μM) [%],Induction Ability compared to positive control (%) CYP1A2 (CYP1A2; 3 μM) [%],Induction Ability compared to positive control (%) CYP1A2 (CYP1A2; 10 μM) [%],Induction Ability compared to positive control (%) CYP3A4 (CYP3A4; test compound 1 μM) [%],Induction Ability compared to positive control (%) CYP3A4 (CYP3A4; test compound 3 μM) [%],Induction Ability compared to positive control (%) CYP3A4 (CYP3A4; test compound 10 μM) [%],induction potency on CYPs (CYPs)
"CNc1nc(-c2cccc(NC(=O)c3ccccc3)c2)c2cc(OC)c(OC)cc2n1 [Comparative example, 4-(3-benzoylaminophenyl)-6,7-dimethoxy-2-methylaminoquinalozine, reference compound]",2.1,18.5,51.9,7.2,34.3,35.0,1.6,10.8,17.0,induction potency on CYPs was observed

# — patent US7939540B2, “4-(3-benzoylaminophenyl)-6,7-dimethoxy-2-methylaminoquinazoline derivatives” (Eisai R&D Management Co., Ltd., priority 2006, dated 2011)
